The pIC50 is the negative decadic logarithm of the IC50, by convention in mol/L. A low value points to a large IC50.

pIC50: −log10 of the molar value.

This is an account of results in patent US4853463A, “Amino acid derivatives” (Kissei Pharmaceutical Co., Ltd., priority 1985, dated 1989).

The target of assay [1] is T1, human renin (Homo sapiens, UniProt P00797).
T1 sequence (P00797 67-406): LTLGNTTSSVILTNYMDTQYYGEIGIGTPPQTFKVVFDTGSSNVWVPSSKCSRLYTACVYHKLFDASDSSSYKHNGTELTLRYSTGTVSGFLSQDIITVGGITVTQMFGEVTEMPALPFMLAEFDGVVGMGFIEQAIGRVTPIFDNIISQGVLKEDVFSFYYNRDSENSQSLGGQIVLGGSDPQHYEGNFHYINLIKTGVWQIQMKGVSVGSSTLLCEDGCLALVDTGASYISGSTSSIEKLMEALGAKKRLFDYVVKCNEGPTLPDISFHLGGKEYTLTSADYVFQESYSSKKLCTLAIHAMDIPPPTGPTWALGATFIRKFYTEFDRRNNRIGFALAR
Further details: human high renin plasma; from tissue; host or cells: human high renin plasma. To be noted: reported at 1986 meetings; cited from earlier work.

In assay [2] the target is T1, human renin. Kind of assay: Renin inhibitory effect in a human high renin plasma. More on the design: human high renin plasma; from tissue; host or cells: human high renin plasma. The conditions noted are these: phosphate buffer pH 7.0, 37° C., 60 minutes. Type of assay: biochemical. As to the method: Renin inhibitory effect in a human high renin plasma
The mixture consisted of 500 μl of human high renin plasma, 50 μl of 20 mM L-phenylalanyl-L-alanyl-L-prolin, an angiotensin converting enzyme inhibitor, 350 μl of 0.5 M phosphate buffer (pH 7.0) containing 14 mM EDTA·2Na and 0.3% neomycin and 100 μl of appropriate concentration of amino acid compound of the present invention dissolved in DMSO or DMSO as a control. A 200 μl sample was taken out from the solution, and was cooled at 4° C. in an ice bath. The remaining sample (800 μl) was incubated for 60 minutes at 37° C. in a water bath. A 200 μl of sample was taken out from the incubated mixture, and chilled immediately in an ice bath. The amount of angiotensin I produced in both samples was determined by radioimmunoassay, and the net amount was estimated as a difference between the samples incubated at 37° C. and the sample cooled at 4° C.
The inhibitory effect was calculated by the following equation: [formula]
The molar concentration which produced 50% inhibition (IC50) was calculated from the inhibition value obtained, and the results are shown below. [drawing 32]

Assay [3] has as its target T1, human renin. The assay is described as follows: Human renin-sheep renin substrate reaction system in vitro. Type of assay: biochemical. To be noted: purified human renin, semipurified sheep renin substrate, pH 7.4, 37° C., 15 minutes. As to the method:
Human renin-sheep renin substrate reaction system in vitro
To a mixture containing 200 μl of a 125 mM pyrophosphate buffer (pH 7.4), 25 μl of a 20 mM aqueous solution of L-phenylalanyl-L-alanyl-L-prolin as an angiotensin converting enzyme inhibitor, 50 μl of semipurified sheep renin substrate (2000 ng angiotensin I/ml), 50 μl of dimethyl sulfoxide solution of an amino acid derivative of the present invention or 50 μl of dimethyl sulfoxide as a control and 150 μl of deionized water was added 25 μl of purified human renin (20-30 ng angiotensin I/ml/hr). The mixture was incubated for 15 minutes on a water bath at 37° C., and the reaction mixture was allowed to stand for 5 minutes on a water bath at 100° C. to stop the reaction. After cooling, 200 μl of the solution were taken out and the amount of angiotensin I produced by the addition of renin was determined by radioimmunoassay. The inhibitory effect was calculated by the following equation. [formula]
The molar concentration which produced a 50% inhibition (IC50) was calculated from the inhibition value obtained, and the results are shown below. [drawing 19]

Assay [4] in a line: Hypotensive effect in marmoset. To be noted: 30 mg/kg oral, furosemide-treated high renin marmoset, Control 84.3 mmHg. In kind it is in vivo, common marmoset. How it is done: Hypotensive effect in marmoset
The experiment was carried out by using common marmoset as described in K. G. Hofbauer et al., Clinical and Experimental hypertension, Vol. A5, Nos. 7 & 8 (1983), pages 1237-1247.
Furosemide was orally administered three times to common marmoset at 15 mg per kilogram per day every other day to create a high renin state. Blood pressure of conscious marmoset was measured 3 days after the last administration of furosemide.
Measurement of blood pressure
A conscious male marmoset weighing 360 g was binded on a monkey chair, and tailarterial pressure was recorded on a pretismograph. The amino acid compound of the present invention, administred orally using a catheter.
(a) Compound: Isopropyl (2RS, 3S)-3-{N-[2-(1-naphthylmethyl)-3-(morpholinocarbonyl)propionyl]-L-alanyl}amino-2-hydroxy-5-methylhexanoate

In the case of `COC(=O)C(O)C(CC(C)C)NC(=O)[C@H](Cc1c[nH]cn1)NC(=O)C(CC(=O)NCCc1ccccc1)Cc1cccc2ccccc12` (stereo partly drawn), the “Human renin inhibitory activity” value at human renin [1] is listed as “human renin inhibitory activity”.

For `CC(C)C[C@H](NC(=O)[C@H](C)NC(=O)C(CC(=O)N1CCOCC1)Cc1cccc2ccccc12)C(O)C(=O)OC(C)C` (mixture of isomers) [No. 1, Isopropyl (2RS, 3S)-3-{N-[2-(1-naphthylmethyl)-3-(morpholinocarbonyl)propionyl]-L-alanyl}amino-2-hydroxy-5-methylhexanoate], the negative-log IC50 (pIC50) was 7.70 against human renin [2] and 7.59 against human renin [3]. Also, the Blood pressure came out at 75.8 mmHg in assay [4] (1 hour after administration); 70.0 mmHg in assay [4] (2 hours after administration); 70.0 mmHg in assay [4] (3 hours after administration); 70.0 mmHg in assay [4] (5 hours after administration); 72.6 mmHg in assay [4] (7 hours after administration).

As for `COC(=O)C(O)[C@H](CC(C)C)NC(=O)[C@H](CC(C)C)NC(=O)C(CC(=O)N1CCOCC1)Cc1cccc2ccccc12` (mixture of isomers) [No. 3, Methyl (2RS, 3S)-3-{N-[2-(1-naphthylmethyl)-3-(morpholinocarbonyl)propionyl]-L-leucyl}amino-2-hydroxy-5-methylhexanoate], the pIC50 at human renin [2] was 7.96; against human renin [3], 7.52.

In the case of `CC(C)CCNC(=O)C[C@H](O)[C@H](CC(C)C)NC(=O)[C@H](CC(C)C)NC(=O)C(CC(=O)N1CCOCC1)Cc1cccc2ccccc12` (stereo partly drawn) [No. 4, N-[2-(1-Naphthylmethyl)-3-(morpholinocarbonyl)-propionyl]-L-leucyl-statiyl isoamylamide], the results for the pIC50 on human renin [2] and against human renin [3] were 7.21 and 7.10, respectively.

On to `CC(C)C[C@H](NC(=O)C(CC(=O)N1CCOCC1)Cc1cccc2ccccc12)C(=O)N[C@@H](CC(C)C)C(O)C(=O)OC(C)C` (stereo partly drawn) [compound 2], for which the pIC50 against human renin [2] is 7.80; against human renin [3], 7.85.

Consider `CC(C)C[C@H](NC(=O)[C@@H](NC(=O)C(CC(=O)N1CCOCC1)Cc1cccc2ccccc12)C(C)C)C(O)C(=O)OC(C)C` (stereo partly drawn) [compound 5], for which the values for the pIC50 against human renin [2] and against human renin [3] were 8.48 and 8.18, respectively.

Turning to `CC(C)C[C@H](NC(=O)[C@H](Cc1ccccc1)NC(=O)C(CC(=O)N1CCOCC1)Cc1cccc2ccccc12)C(O)C(=O)OC(C)C` (stereo partly drawn) [compound 6], the pIC50 on human renin [2] was 6.85; on human renin [3] it was 7.32.

As to `CC(C)C[C@H](NC(=O)[C@H](Cc1c[nH]c2ccccc12)NC(=O)C(CC(=O)N1CCOCC1)Cc1cccc2ccccc12)C(O)C(=O)OC(C)C` (stereo partly drawn) [compound 7], the pIC50 is 6.29 on human renin [2] and 6.54 against human renin [3].

For the compound `CC(C)C[C@H](NC(=O)[C@H](CO)NC(=O)C(CC(=O)N1CCOCC1)Cc1cccc2ccccc12)C(O)C(=O)OC(C)C` (stereo partly drawn) [compound 8], the pIC50 at human renin [2] is 8.14; on human renin [3], 7.59.

For the compound `CC(C)C[C@H](NC(=O)CNC(=O)C(CC(=O)N1CCOCC1)Cc1cccc2ccccc12)C(O)C(=O)OC(C)C` (stereo partly drawn) [compound 9], the values for the pIC50 against human renin [2] and against human renin [3] were 6.70 and 6.41, respectively.

As for `CC(C)C[C@H](NC(=O)CCNC(=O)C(CC(=O)N1CCOCC1)Cc1cccc2ccccc12)C(O)C(=O)OC(C)C` (stereo partly drawn) [compound 10], the figures for the pIC50 on human renin [2] and on human renin [3] were 7.34 and 6.89, respectively.

As for `COC(=O)[C@@H]1CCCN1C(=O)CC(Cc1cccc2ccccc12)C(=O)N[C@@H](C)C(=O)N[C@@H](CC(C)C)C(O)C(=O)OC(C)C` (stereo partly drawn) [compound 11], the pIC50 at human renin [2] was 7.36; at human renin [3], 7.23.

With `COC(=O)CN(C)C(=O)CC(Cc1cccc2ccccc12)C(=O)N[C@@H](C)C(=O)N[C@@H](CC(C)C)C(O)C(=O)OC(C)C` (stereo partly drawn) [compound 12], the pIC50 was 7.89 at human renin [2] and 7.82 at human renin [3].
